Measured values as given in patent publication US20240002388A1, “PYRIMIDINONE COMPOUNDS AND USES THEREOF” (HUTCHISON MEDIPHARMA LIMITED, priority 2020, published 2024).

system: U937 cell line (human histiocytic lymphoma cell line); assay: U937 cell viability assay (TNF-α + Z-VAD-FMK induced necroptosis); format: cell-based; conditions: Homo sapiens, U-937; U937 cells, hTNF-α 0.1 μg/mL + Z-VAD-FMK 50 μM, 20 hours, CellTiter-Glo
Experimental: U937 cell line (human histiocytic lymphoma cell line): purchased from ATCC (American Type Culture Collection) Cell Bank, cultured in a 5% CO2, 37° C. incubator, and RPMI 1640 medium which contains L-glutamine, 1.5 g/L sodium bicarbonate, 2.383 g/L HEPES solution, 0.11 g/L sodium pyruvate and 4.5 g/L glucose, plus 10% fetal bovine serum (FBS) was used. • RPMI 1640 medium: GIBCO, Cat #A10491-01; • Fetal bovine serum (FBS): GIBCO, Cat #10099-141C; • Dimethyl sulfoxide (DMSO): Sigma, Cat #D2650; • Recombinant Human TNF-alpha Protein (hTNF-α): R&D system, Cat #210-TA-100; • Pan-Caspase inhibitor (Z-VAD-FMK): Selleckchem, Cat #S7023; • CellTiter-Glo 2.0 Cell Viability Assay kit: Promega, Cat #G9242; • Microwell plate reader: Envision, Perkin Elmer; • 96-well plate: Corning, Cat #3917.
The U937 cells at the logarithmic phase were taken out, centrifuged to remove the medium, washed with PRMI 1640 medium containing 1% FBS, and diluted with 1% FBS-containing RPMI 1640 medium to 2.5×10^5 cells/ml, inoculated at 70 μL/well into a 96-well plate, i.e., 1.75×10^4 cells/well. The plate was cultured in a 5% CO2, 37° C. cell incubator. After incubating for 1 hour, the test compound was diluted to the corresponding concentrations using DMSO with 3-fold serial dilution, then the corresponding concentration of DMSO diluted solution was diluted into 1% FBS-containing RPMI 1640 medium, and 10 μL/well of the diluted test compound with different concentrations (final concentration of test compound was 1.0, 0.333, 0.111, 0.037, 0.012, 0.004, 0.0014 and 0.0005 μM, while final concentration of DMSO was 0.3%) or 10 μL/well control solution (3% DMSO) were added to the cell culture system respectively, with the total volume being 80 μL/well; Then 10 μL of Z-VAD-FMK solution diluted with 1% FBS-containing RPMI 1640 medium (final concentration of 50 μM) or 10 μL of control solution (2.5% DMSO) was added to each well, with the total volume being 90 μL/well. The plate was incubated in a 5% CO2, 37° C. cell culture incubator for 1 hour.
After being cultured for 1 hour, 10 μL of human recombinant TNF-α protein diluted with 1% FBS-containing RPMI 1640 medium (final concentration of 0.1 μg/mL) or 10 μL/well control solution (1% FBS-containing RPMI 1640 medium) was added to each well. The plate was incubated in a 5% CO2, 37° C. cell culture incubator for 20 hours.
The cell culture plate was taken out from the incubator, and left to stand at room temperature for 30 minutes. Meanwhile, CellTiter-Glo viability assay kit was put from freezer to room temperature, and 50 μL of CellTiter-Glo reagent was added to all wells, the plate was shaken for 1 minutes, protected from light at room temperature for 10 minutes then read the plate on Envision to get the luminescence signal.
The 96-well plate in the dark was taken out, and the chemiluminescence was determined using the Envision microwell plate reader as the signal value of each well.
The mean signal value of the wells of the mixed solution of recombinant human TNF-alpha protein (final concentration of 0.1 μg/mL) and Pan-Caspase inhibitor (final concentration of 50 μM) was used as the lower value, and the mean signal value of the wells without stimulation was used as the upper value. According to the signal value of each well, the inhibition rate of each concentration of every compound was calculated, and the IC50 value of compound was obtained by Model 205 in XL-Fit 5.3 software (ID Business Solutions Limited).
Inhibition rate %=[(Luminescence readout of treated compound−Luminescence readout of positive control)/(Luminescence readout of negative control−Luminescence readout of positive control)]×100%, wherein

Structure (SMILES)	IC50 [nM]
CC(C)n1cncc(-c2ccc(C3(NC(=O)c4ncc5cnn([C@@H](C)C6CC6)c5n4)CC3)cc2)c1=O [Compound 90, (S)-1-(1-cyclopropylethyl)-N-(1-(4-(1-i-propyl-6-oxo-1,6-dihydropyrimidin-5-yl)phenyl)cyclopropyl)-1H-pyrazolo[3,4-d]pyrimidine-6-carboxamide]	4
Cn1cncc(-c2ccc(C3(NC(=O)c4ncc5cnn(-c6ccccc6)c5n4)CC3)cc2)c1=O [Compound 4]	17
CC(C)n1ncc2cnc(C(=O)NC3(c4ccc(-c5cncn([C@H]6C[C@@H]6F)c5=O)cc4)CC3)nc21 [Compound 67]	91
Cn1cncc(-c2ccc(C3(NC(=O)c4nnc(Cc5ccccc5)o4)CC3)cc2)c1=O [Compound 11]	139
Cn1cncc(-c2ccc(C3(NC(=O)c4nnc(Cc5ccccc5)[nH]4)CC3)cc2)c1=O [Compound 3]	21
CC(C)n1cncc(-c2ccc(C3(NC(=O)c4nnc(Cc5ccccc5)o4)CC3)cc2)c1=O [Compound 13]	4
CC(C)n1cncc(-c2ccc(C3(NC(=O)c4ncc5cnn(C(C)C)c5n4)CC3)cc2)c1=O [Compound 29, 1-isopropyl-N-(1-(4-(1-isopropyl-6-oxo-1,6-dihydropyrimidin-5-yl)phenyl)cyclopropyl)-1H-pyrazolo[3,4-d]pyrimidine-6-carboxamide]	3
CC(C)n1cncc(-c2ccc(C3(NC(=O)c4ncc5cnn(C6COC6)c5n4)CC3)cc2)c1=O [Compound 60]	66
CC(C)Cn1cncc(-c2ccc(C3(NC(=O)c4ncc5cnn(C(C)C)c5n4)CC3)cc2)c1=O [Compound 45]	2
CC(C)n1ncc2cnc(C(=O)NC3(c4cc(F)c(-c5cncn(CC6CC6)c5=O)cc4F)CC3)nc21 [Compound 94]	3
CC(C#N)n1cncc(-c2ccc(C3(NC(=O)c4ncc5cnn(C(C)C)c5n4)CC3)cc2)c1=O (stereo in doubt) [Compound 82, (R)—N-(1-(4-(1-(1-cyanoethyl)-6-oxo-1,6-dihydropyrimidin-5-yl)phenyl)cyclopropyl)-1-i-propyl-1H-pyrazolo[3,4-d]pyrimidine-6-carboxamide]	18
C[C@@H](n1cncc(-c2ccc(C3(NC(=O)c4ncc5cnn(CC6CC6)c5n4)CC3)c(F)c2)c1=O)C(F)(F)F [Compound 76]	3
C[C@H](n1cncc(-c2ccc(C3(NC(=O)c4ncc5cnn(CC6CC6)c5n4)CC3)c(F)c2)c1=O)C(F)(F)F [Compound 71]	3
CC(C)n1ncc2cnc(C(=O)NC3(c4ccc(-c5cncn([C@H](C)C(F)(F)F)c5=O)cc4F)CC3)nc21 (stereo in doubt) [Compound 46]	2
CC(C)n1ncc2cnc(C(=O)NC3(c4ccc(-c5cnc(N)n(C)c5=O)cc4)CC3)nc21 [Compound 30]	8
Cn1cncc(-c2ccc(C3(NC(=O)c4ncc(Cc5ccccc5)o4)CC3)cc2)c1=O [Compound 10]	8
CC(C)n1ncc2cnc(C(=O)NC3(c4ccc(-c5cncn([C@@H](C)C(F)(F)F)c5=O)cc4)CC3)nc21 [Compound 40]	12
CC(C)n1ncc2cnc(C(=O)NC3(c4ccc(-c5cncn(CC6(C)CC6)c5=O)cc4)CC3)nc21 [Compound 86]	1
CC(C)n1cncc(-c2ccc(C3(NC(=O)c4ncc5cnn(-c6ccccc6)c5n4)CC3)cc2)c1=O [Compound 19]	3
CC(C)n1ncc2cnc(C(=O)NC3(c4ccc(-c5cncn(CC6CC6)c5=O)cc4F)CC3)nc21 [Compound 74]	1
CC(C)n1cncc(-c2ccc(C3(NC(=O)c4ncc5cnn(C(C)C)c5n4)CC3)cc2Cl)c1=O [Compound 33]	10

Structure (SMILES)	IC50 [nM]
CC(C)n1cncc(-c2ccc(C3(NC(=O)c4nc5n(n4)[C@@H](c4ccccc4)CC5)CC3)cc2)c1=O [Compound 15]	20
CC(C)n1ncc2cnc(C(=O)NC3(c4ccc(-c5cncn(C6CC6)c5=O)cc4)CC3)nc21 [Compound 12]	18
CC(C)Cc1nc(C(=O)NC2(c3ccc(-c4cncn(C)c4=O)cc3)CC2)ncc1Cl [Compound 6]	21
CC(C)n1cncc(-c2ccc(C3(NC(=O)c4ncc5cnn(C(C)C)c5n4)CC3)c(F)c2F)c1=O [Compound 93]	6
Cn1cncc(-c2ccc(C3(NC(=O)c4noc(Cc5ccccc5)n4)CC3)cc2)c1=O [Compound 9]	52
Cn1cncc(-c2ccc(C3(NC(=O)c4nnc(Cc5c(F)cccc5F)[nH]4)CC3)cc2)c1=O [Compound 18]	82
CC(C)n1cncc(-c2ccc(C3(NC(=O)c4ncc5cnn(CC6CCC6)c5n4)CC3)cc2)c1=O [Compound 62]	2
CC(C)n1ncc2cnc(C(=O)NC3(c4ccc(-c5cncn(CC(F)(F)F)c5=O)cc4)CC3)nc21 [Compound 38]	13
CC(C)n1ncc2cnc(C(=O)NC3(c4ccc(-c5cncn(CC6CC6)c5=O)c(F)c4)CC3)nc21 [Compound 75]	2
CC(C)n1ncc2cnc(C(=O)NC3(c4ccc(-c5cncn([C@H](C)C6CC6)c5=O)cc4)CC3)nc21 [Compound 84, (R)—N-(1-(4-(1-(1-cyclopropylethyl)-6-oxo-1,6-dihydropyrimidin-5-yl)phenyl)cyclopropyl)-1-i-propyl-1H-pyrazolo[3,4-d]pyrimidine-6-carboxamide]	1
Cn1cncc(-c2ccc(C3(NC(=O)c4nc5n(n4)[C@@H](c4ccccc4)CC5)CC3)cc2)c1=O [Compound 54, (R)—N-(1-(4-(1-methyl-6-oxo-1,6-dihydropyrimidin-5-yl)phenyl)cyclopropyl)-5-phenyl-6,7-dihydro-5H-pyrrolo[1,2-b][1,2,4]triazole-2-carboxamide]	12
O=C(NC1(c2ccc(-c3cncn(CC4CC4)c3=O)cc2)CC1)c1ncc2cnn(CC3CC3)c2n1 [Compound 64]	2
CC(C)n1ncc2cnc(C(=O)NC3(c4ccc(-c5cncn([C@H](C)C(F)(F)F)c5=O)cc4)CC3)nc21 [Compound 39]	6
CC(C)n1ncc2cnc(C(=O)NC3(c4ccc(-c5cncn(C6(C)CCC6)c5=O)cc4)CC3)nc21 [Compound 79]	2
CC(C)n1ncc2cnc(C(=O)NC3(c4ccc(-c5cncn(C6COC6)c5=O)cc4)CC3)nc21 [Compound 41]	64
CC(C)n1ncc2cnc(C(=O)NC3(c4ccc(-c5cncn(C)c5=O)cc4)CC3)nc21 [Compound 1, 1-isopropyl-N-(1-(4-(1-methyl-6-oxo-1,6-dihydropyrimidin-5-yl)phenyl)cyclopropyl)-1H-pyrazolo[3,4-d]pyrimidine-6-carboxamide]	21
CC(C)n1ncc2cnc(C(=O)NC3(c4ccc(-c5cncn([C@@H]6C[C@@H]6F)c5=O)cc4)CC3)nc21 [Compound 69]	9
CC(C)n1ncc2cnc(C(=O)NC3(c4ccc(-c5cncn(C)c5=O)cc4F)CC3)nc21 [Compound 26]	12
CC(C)Cc1nc(C(=O)NC2(c3ccc(-c4cncn(C(C)C)c4=O)cc3)CC2)ncc1Cl [Compound 22]	3
CC(C)n1cncc(-c2ccc(C3(NC(=O)c4ncc5cnn(C(C)C)c5n4)CC3)c(F)c2)c1=O [Compound 34]	7
CC(C)n1ncc2cnc(C(=O)NC3(c4ccc(-c5cncn([C@H]6C[C@H](F)C6)c5=O)cc4)CC3)nc21 [Compound 87, N-(1-(4-(1-(trans-3-fluorocyclobutyl)-6-oxo-1,6-dihydropyrimidin-5-yl)phenyl)cyclopropyl)-1-i-propyl-1H-pyrazolo[3,4-d]pyrimidine-6-carboxamide]	11
